One data set relates to RAW264.7. Description: Cytotoxicity against mouse RAW264.7 cells assessed as reduction in cell viability at 30 uM incubated for 24 hrs by MTT assay relative to control. Format: toxicity, cell-based. Particulars: raw264.7, 24 h.
Data set [1] can be described thus: Cytotoxicity against mouse RAW264.7 cells assessed as inhibition of cell growth incubated for 24 hrs by MTT assay. Format: toxicity, cell-based. Background: Tetrazolium assays rely on reduction of a dye to a coloured formazan, in cell work by metabolically active cells.

As a reminder, the IC50 is the point on the concentration scale where inhibition reaches its midpoint.

Structures are written as SMILES.

Turning to `CC(=O)O[C@H]1C[C@@]2(C)[C@@H](C[C@@H](O)[C@H]3[C@@]4(C)CC[C@@H](O)[C@@H](C)[C@@H]4CC[C@@]32C)/C1=C(\CCC=C(C)C)C(=O)OCc1nnc(-c2ccc([N+](=O)[O-])cc2)o1`, in the data set on RAW264.7, the Activity is 103.17%. Besides, the IC50 at 24 h in data set [1] worked out at 100 µM.
Take `CC(=O)O[C@H]1C[C@@]2(C)[C@@H](C[C@@H](O)[C@H]3[C@@]4(C)CC[C@@H](O)[C@@H](C)[C@@H]4CC[C@@]32C)/C1=C(\CCC=C(C)C)C(=O)OCc1cc(-c2ccc(Br)cc2)no1`: in the data set with RAW264.7, the Activity was 96.29%. In data set [1], the IC50 at 24 h amounted to 40.9 µM.
For the molecule `COc1ccc(-n2cc(COC(=O)/C(CCC=C(C)C)=C3\[C@@H](OC(C)=O)C[C@@]4(C)[C@H]3C[C@@H](O)[C@H]3[C@@]5(C)CC[C@@H](O)[C@@H](C)[C@@H]5CC[C@@]34C)nn2)cc1`, the Activity with RAW264.7 turned out to be 99.38%. Further, the IC50 at 24 h in data set [1] worked out at 43.6 µM.
Consider `COc1ccc(-c2nnc(COC(=O)/C(CCC=C(C)C)=C3\[C@@H](OC(C)=O)C[C@@]4(C)[C@H]3C[C@@H](O)[C@H]3[C@@]5(C)CC[C@@H](O)[C@@H](C)[C@@H]5CC[C@@]34C)o2)cc1`, for which, in the data set with RAW264.7, the Activity is 101.7%. Besides, the IC50 at 24 h in data set [1] was found to be 114 µM.
For the molecule `CC(=O)O[C@H]1C[C@@]2(C)[C@@H](C[C@@H](O)[C@H]3[C@@]4(C)CC[C@@H](O)[C@@H](C)[C@@H]4CC[C@@]32C)/C1=C(\CCC=C(C)C)C(=O)OCc1cc(-c2ccc(C)cc2)no1`, the Activity in the data set with RAW264.7 stood at 104.48%. Moreover, in data set [1], the IC50 at 24 h is 75.9 µM.
For `CC(=O)O[C@H]1C[C@@]2(C)[C@@H](C[C@@H](O)[C@H]3[C@@]4(C)CC[C@@H](O)[C@@H](C)[C@@H]4CC[C@@]32C)/C1=C(\CCC=C(C)C)C(=O)OCc1cn(Cc2ccc([N+](=O)[O-])cc2)nn1`, in the data set with RAW264.7, the Activity is recorded as 101.85%. Further, the IC50 at 24 h in data set [1] was found to be 56.8 µM.
Taken in the same sequence, the figures for `CC(=O)O[C@H]1C[C@@]2(C)[C@@H](C[C@@H](O)[C@H]3[C@@]4(C)CC[C@@H](O)[C@@H](C)[C@@H]4CC[C@@]32C)/C1=C(\CCC=C(C)C)C(=O)OCc1cn(Cc2ccc(C)cc2)nn1` were 105.96% and 121 µM.
For `COc1ccc(Cn2cc(COC(=O)/C(CCC=C(C)C)=C3\[C@@H](OC(C)=O)C[C@@]4(C)[C@H]3C[C@@H](O)[C@H]3[C@@]5(C)CC[C@@H](O)[C@@H](C)[C@@H]5CC[C@@]34C)nn2)cc1`, in that order: 100.31% and 110 µM.
For `CC(=O)O[C@H]1C[C@@]2(C)[C@@H](C[C@@H](O)[C@H]3[C@@]4(C)CC[C@@H](O)[C@@H](C)[C@@H]4CC[C@@]32C)/C1=C(\CCC=C(C)C)C(=O)OCc1cn(-c2ccc(Br)cc2)nn1`, in that order: 92.58% and 54.5 µM.
Turning to `COc1ccc(-c2cc(COC(=O)/C(CCC=C(C)C)=C3\[C@@H](OC(C)=O)C[C@@]4(C)[C@H]3C[C@@H](O)[C@H]3[C@@]5(C)CC[C@@H](O)[C@@H](C)[C@@H]5CC[C@@]34C)on2)cc1`, in the data set on RAW264.7, the Activity turned out to be 97.68%. Moreover, the IC50 at 24 h in data set [1] is 77.2 µM.
Taken in the same sequence, the figures for `CC(=O)O[C@H]1C[C@@]2(C)[C@@H](C[C@@H](O)[C@H]3[C@@]4(C)CC[C@@H](O)[C@@H](C)[C@@H]4CC[C@@]32C)/C1=C(\CCC=C(C)C)C(=O)OCc1cn(-c2ccc(Cl)cc2)nn1` were 101.39% and 119 µM.
Consider `COc1ccc(-n2cc(COC(=O)/C(CCC=C(C)C)=C3\[C@@H](OC(C)=O)C[C@@]4(C)[C@H]3C[C@@H](O)[C@H]3[C@@]5(C)CC[C@@H](O)[C@@H](C)[C@@H]5CC[C@@]34C)nn2)cc1OC`, for which the Activity in the data set with RAW264.7 was found to be 102.78%. Besides, the IC50 at 24 h in data set [1] worked out at 76.6 µM.
As to `CC(=O)O[C@H]1C[C@@]2(C)[C@@H](C[C@@H](O)[C@H]3[C@@]4(C)CC[C@@H](O)[C@@H](C)[C@@H]4CC[C@@]32C)/C1=C(\CCC=C(C)C)C(=O)OCc1cn(-c2ccc(Cl)c(Cl)c2)nn1`, the Activity in the data set on RAW264.7 was 104.17%. Also, in data set [1], the IC50 at 24 h was determined as 56.1 µM.
Taken in the same sequence, the figures for `CC(=O)O[C@H]1C[C@@]2(C)[C@@H](C[C@@H](O)[C@H]3[C@@]4(C)CC[C@@H](O)[C@@H](C)[C@@H]4CC[C@@]32C)/C1=C(\CCC=C(C)C)C(=O)OCc1cc(-c2ccc(Cl)cc2)no1` were 103.94% and 42 µM.
For `COc1cc(-c2cc(COC(=O)/C(CCC=C(C)C)=C3\[C@@H](OC(C)=O)C[C@@]4(C)[C@H]3C[C@@H](O)[C@H]3[C@@]5(C)CC[C@@H](O)[C@@H](C)[C@@H]5CC[C@@]34C)on2)cc(OC)c1OC`, the Activity in the data set with RAW264.7 turned out to be 95.67%. Besides, the IC50 at 24 h in data set [1] was 50.6 µM.
For `CC(=O)O[C@H]1C[C@@]2(C)[C@@H](C[C@@H](O)[C@H]3[C@@]4(C)CC[C@@H](O)[C@@H](C)[C@@H]4CC[C@@]32C)/C1=C(\CCC=C(C)C)C(=O)OCc1cc(-c2ccc(F)cc2)no1`, in that order: 103.63% and 62.4 µM.
For `CC(=O)O[C@H]1C[C@@]2(C)[C@@H](C[C@@H](O)[C@H]3[C@@]4(C)CC[C@@H](O)[C@@H](C)[C@@H]4CC[C@@]32C)/C1=C(\CCC=C(C)C)C(=O)OCc1nnc(-c2ccccc2)o1`, in that order: 102.94% and 40.1 µM.
In the case of `COc1cc(Cn2cc(COC(=O)/C(CCC=C(C)C)=C3\[C@@H](OC(C)=O)C[C@@]4(C)[C@H]3C[C@@H](O)[C@H]3[C@@]5(C)CC[C@@H](O)[C@@H](C)[C@@H]5CC[C@@]34C)nn2)cc(OC)c1OC`, the Activity in the data set with RAW264.7 is 97.45%. For the same molecule, the IC50 at 24 h in data set [1] stood at 56.1 µM.
Take `CC(=O)O[C@H]1C[C@@]2(C)[C@@H](C[C@@H](O)[C@H]3[C@@]4(C)CC[C@@H](O)[C@@H](C)[C@@H]4CC[C@@]32C)/C1=C(\CCC=C(C)C)C(=O)OCc1cn(-c2ccc(C)cc2)nn1`: in the data set with RAW264.7, the Activity was found to be 96.68%. In addition, in data set [1], the IC50 at 24 h came out at 89.6 µM.
For `CC(=O)O[C@H]1C[C@@]2(C)[C@@H](C[C@@H](O)[C@H]3[C@@]4(C)CC[C@@H](O)[C@@H](C)[C@@H]4CC[C@@]32C)/C1=C(\CCC=C(C)C)C(=O)OCc1cc(-c2ccc(Cl)c(Cl)c2)no1`, in that order: 94.05% and 44.6 µM.
Taken in the same sequence, the figures for `CC(=O)O[C@H]1C[C@@]2(C)[C@@H](C[C@@H](O)[C@H]3[C@@]4(C)CC[C@@H](O)[C@@H](C)[C@@H]4CC[C@@]32C)/C1=C(\CCC=C(C)C)C(=O)OCc1cn(Cc2ccc(F)cc2)nn1` were 103.74% and 68.7 µM.
Taken in the same sequence, the figures for `CC(=O)O[C@H]1C[C@@]2(C)[C@@H](C[C@@H](O)[C@H]3[C@@]4(C)CC[C@@H](O)[C@@H](C)[C@@H]4CC[C@@]32C)/C1=C(\CCC=C(C)C)C(=O)OCc1cn(-c2ccc([N+](=O)[O-])cc2)nn1` were 101.62% and 120 µM.
`CC(=O)O[C@H]1C[C@@]2(C)[C@@H](C[C@@H](O)[C@H]3[C@@]4(C)CC[C@@H](O)[C@@H](C)[C@@H]4CC[C@@]32C)/C1=C(\CCC=C(C)C)C(=O)OCc1cn(Cc2ccc(Cl)c(Cl)c2)nn1`: the Activity with RAW264.7 is listed as 100.62%. Also, the IC50 at 24 h in data set [1] came out at 49.8 µM.
For `COc1ccc(-c2cc(COC(=O)/C(CCC=C(C)C)=C3\[C@@H](OC(C)=O)C[C@@]4(C)[C@H]3C[C@@H](O)[C@H]3[C@@]5(C)CC[C@@H](O)[C@@H](C)[C@@H]5CC[C@@]34C)on2)cc1OC`, in that order: 100.7% and 87.3 µM.
Taken in the same sequence, the figures for `CC(=O)O[C@H]1C[C@@]2(C)[C@@H](C[C@@H](O)[C@H]3[C@@]4(C)CC[C@@H](O)[C@@H](C)[C@@H]4CC[C@@]32C)/C1=C(\CCC=C(C)C)C(=O)OCc1cc(-c2ccccc2)no1` were 104.11% and 93 µM.
Taken in the same sequence, the figures for `CC(=O)O[C@H]1C[C@@]2(C)[C@@H](C[C@@H](O)[C@H]3[C@@]4(C)CC[C@@H](O)[C@@H](C)[C@@H]4CC[C@@]32C)/C1=C(\CCC=C(C)C)C(=O)OCc1cn(Cc2ccc(Br)cc2)nn1` were 100.93% and 88.7 µM.
As for `CC(=O)O[C@H]1C[C@@]2(C)[C@@H](C[C@@H](O)[C@H]3[C@@]4(C)CC[C@@H](O)[C@@H](C)[C@@H]4CC[C@@]32C)/C1=C(\CCC=C(C)C)C(=O)OCc1cn(Cc2ccccc2)nn1`, the Activity in the data set with RAW264.7 turned out to be 98.53%. The IC50 at 24 h in data set [1] is 88.3 µM.
Taken in the same sequence, the figures for `CC(=O)O[C@H]1C[C@@]2(C)[C@@H](C[C@@H](O)[C@H]3[C@@]4(C)CC[C@@H](O)[C@@H](C)[C@@H]4CC[C@@]32C)/C1=C(\CCC=C(C)C)C(=O)OCc1cn(-c2ccc(F)cc2)nn1` were 100.85% and 46.5 µM.
Consider `CC(=O)O[C@H]1C[C@@]2(C)[C@@H](C[C@@H](O)[C@H]3[C@@]4(C)CC[C@@H](O)[C@@H](C)[C@@H]4CC[C@@]32C)/C1=C(\CCC=C(C)C)C(=O)OCc1nnc(-c2ccc(Cl)cc2)o1`, for which the Activity in the data set with RAW264.7 amounted to 103.01%. In addition, in data set [1], the IC50 at 24 h worked out at 44.3 µM.
Regarding `CC(=O)O[C@H]1C[C@@]2(C)[C@@H](C[C@@H](O)[C@H]3[C@@]4(C)CC[C@@H](O)[C@@H](C)[C@@H]4CC[C@@]32C)/C1=C(\CCC=C(C)C)C(=O)OCc1nnc(-c2ccc(F)cc2)o1`, in the data set on RAW264.7, the Activity amounted to 102.47%. The IC50 at 24 h in data set [1] is 47.9 µM.
Taken in the same sequence, the figures for `COc1cc(-n2cc(COC(=O)/C(CCC=C(C)C)=C3\[C@@H](OC(C)=O)C[C@@]4(C)[C@H]3C[C@@H](O)[C@H]3[C@@]5(C)CC[C@@H](O)[C@@H](C)[C@@H]5CC[C@@]34C)nn2)cc(OC)c1OC` were 98.92% and 120 µM.
For `CC(=O)O[C@H]1C[C@@]2(C)[C@@H](C[C@@H](O)[C@H]3[C@@]4(C)CC[C@@H](O)[C@@H](C)[C@@H]4CC[C@@]32C)/C1=C(\CCC=C(C)C)C(=O)OCc1cn(Cc2ccc(Cl)cc2)nn1`, in that order: 90.57% and 72.5 µM.

Values taken from ChEMBL document CHEMBL5625219, “Design, synthesis fusidic acid derivatives alleviate acute lung injury via inhibiting MAPK/NF-κB/NLRP3 pathway” (Eur J Med Chem, 2023).
